Assay results: patent US10653676B2 (Dana-Farber Cancer Institute, Inc., priority 2010, dated 2020)

What was measured:
[1] = tested on: FANCD2-Ub and FANCI-Ub levels in HeLa cells; test: cell-based assay of monoubiquitinated FANCD2 and FANCI levels by immunoblotting; parameters: species or system human; details: eight hours, increasing concentrations, FIG. 3
Method: Candidate USP1 inhibitors from initial and secondary screens were then used in cell-based assays to look for USP1 inhibition in vivo using levels of FANCD2-Ub and PCNA-Ub as biomarkers for inhibition. For the cell-based assay, cells were treated with the candidate compounds and levels of monoubiquitinated FANCD2 and PCNA were tested both with and without DNA damage. USP1 inhibition was detected as high level of endogenous monoubiquitinated FANCD2 and PCNA. For this assay HeLa and HEK293T cells were treated with selected concentrations of these compounds and grown in Dulbecco's modified Eagle's medium supplemented with 15% heat-inactivated fetal calf serum in a humidified 5% CO2 incubator at 37° C. Damage was induced by both UV irradiation using Stratalinker (Stratagene) and treatment with mitomycin C (MMC, Sigma). After cell lysis, levels of monoubiquitinated FANCD2 and PCNA in whole cell lysate was tested by immunoblotting with anti-FANCD2 antibody (sc-20022; Santa Cruz Biotechnology) and anti-PCNA antibody (sc-56; Santa Cruz Biotechnology). Protection from chromosome aberrations were also tested in UV/MMC-damaged cells treated with candidate USP1 inhibitors using standard chromosome breakage assay. Yang et al. (2001) Blood 98:3435-40. […]

[2] = molecular target: T1, native USP1 (Homo sapiens, UniProt O94782); test: HA-Ub-VS labelling of native USP1 in HeLa cell extracts; assay type: biochemical; details: HeLa cell extracts pretreated 4 h, then Ub-VS 40 min at 30° C.; FIG. 7
T1 construct: endogenous in cells; host or cells: HeLa cell extract
Method: FIG. 7 is a composite figure depicting preferential inhibition of the activity of native USP1/UAF1 by C527. HeLa cell extracts were incubated with ubiquitin-aldehyde (Ub-Ald, 5 μM) or C527 at indicated concentrations for 4 h, followed by the addition of 0.5 μM Ub-Vs for 40 min. The reaction was split into two aliquots and subjected to immunoblotting for HA or USP1, respectively.
The ability of C527 to inhibit the deubiquitinating activity of native USP1 complexes derived from human cells was determined next (FIG. 7). For this purpose, the HA-tagged ubiquitin-VS, an affinity reagent known to covalently modify and trap active DUB enzymes in cell extracts was used. Cell extracts prepared from HeLa cells were pretreated with increasing concentrations of C527 for 4 h, followed by the incubation with Ub-VS for 40 min at 30° C. The enzymatic activity of endogenous DUBs was indicated by the conjugation of Ub-VS, detected as HA-labeling (see FIG. 7, high molecular weight bands). […] Ub-VS conjugation was inhibited by ubiquitin-aldehyde (Ub-Ald), a non-specific inhibitor of DUBs (lane 3).

[3] = molecular target: T2, USP5 (Homo sapiens, UniProt P45974); test: ubiquitin-AMC assay with USP5; assay type: biochemical
T2 construct: purchased Boston Biochem
T2 sequence (P45974 1-858): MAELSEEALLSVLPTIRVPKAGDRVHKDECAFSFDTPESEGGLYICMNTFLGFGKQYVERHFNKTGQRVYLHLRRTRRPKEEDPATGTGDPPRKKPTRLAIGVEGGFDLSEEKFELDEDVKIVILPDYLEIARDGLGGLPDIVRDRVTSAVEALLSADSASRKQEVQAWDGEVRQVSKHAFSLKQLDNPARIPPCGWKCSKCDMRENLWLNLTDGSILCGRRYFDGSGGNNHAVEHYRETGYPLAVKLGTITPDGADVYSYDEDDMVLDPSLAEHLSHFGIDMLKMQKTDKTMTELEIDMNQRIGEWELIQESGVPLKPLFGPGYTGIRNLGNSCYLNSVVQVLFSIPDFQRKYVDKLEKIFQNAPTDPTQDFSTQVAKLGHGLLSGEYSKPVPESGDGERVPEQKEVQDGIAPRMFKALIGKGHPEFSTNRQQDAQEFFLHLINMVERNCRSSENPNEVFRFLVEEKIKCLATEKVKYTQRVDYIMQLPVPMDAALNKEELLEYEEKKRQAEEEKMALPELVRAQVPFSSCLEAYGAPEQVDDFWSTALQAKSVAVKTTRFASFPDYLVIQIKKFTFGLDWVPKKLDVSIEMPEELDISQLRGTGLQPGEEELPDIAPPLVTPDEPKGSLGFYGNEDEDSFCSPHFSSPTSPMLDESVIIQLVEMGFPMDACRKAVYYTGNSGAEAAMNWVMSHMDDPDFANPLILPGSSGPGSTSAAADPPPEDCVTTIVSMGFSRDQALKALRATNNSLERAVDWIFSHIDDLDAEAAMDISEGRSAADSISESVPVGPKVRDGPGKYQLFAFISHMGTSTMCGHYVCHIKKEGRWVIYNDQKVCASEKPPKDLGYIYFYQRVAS
Method: FIG. 6 is a composite figure showing that C527 is a pan-deubiqutinating enzyme inhibitor […]. Ubiquitin-AMC assay was performed using purified (FIG. 6A) USP12/UAF1/WDR20 (FIG. 6B) USP5 and (FIG. 6C) UCH-L1. Enzymes were incubated with DMSO or C527 at indicated concentrations for 3 h, followed by the addition of Ub-AMC at 0.5 μM final concentration. The fluorescence at […] was measured to indicate the enzymatic activity. FIG. 6D is a summary showing the IC50 of C527 against the indicated enzymes.
The in vitro enzymatic assays were performed using purified proteins from Sf9 cells as described previously (Cohn et al.). The assays using ubiquitin-AMC (Ub-7-amido-4-methylcoumarin; Boston Biochem) as substrate was carried out in a reaction buffer containing 20 mM HEPES-KOH (pH 7.8), 20 mM NaCl, 0.1 mg/ml ovalbumin, 0.5 mM EDTA and 10 mM dithiothreitol. The fluorescence was measured by FluoStar Galaxy Fluorometer (BMG Labtech). For the Ub-vinylsulfone (VS) assay, the proteins were incubated with Ub-VS at 0.5 μM final concentration for 1 h at 30° C., followed by the immunoblotting analysis.
To examine the specificity of C527 in USP1/UAF1 inhibition, its ability to inhibit other DUB enzymes in vitro was examined. […] Moreover, the active complex of USP12 contains an additional WD40 subunit (WDR20). […]

T1 sequence (O94782 whole entry): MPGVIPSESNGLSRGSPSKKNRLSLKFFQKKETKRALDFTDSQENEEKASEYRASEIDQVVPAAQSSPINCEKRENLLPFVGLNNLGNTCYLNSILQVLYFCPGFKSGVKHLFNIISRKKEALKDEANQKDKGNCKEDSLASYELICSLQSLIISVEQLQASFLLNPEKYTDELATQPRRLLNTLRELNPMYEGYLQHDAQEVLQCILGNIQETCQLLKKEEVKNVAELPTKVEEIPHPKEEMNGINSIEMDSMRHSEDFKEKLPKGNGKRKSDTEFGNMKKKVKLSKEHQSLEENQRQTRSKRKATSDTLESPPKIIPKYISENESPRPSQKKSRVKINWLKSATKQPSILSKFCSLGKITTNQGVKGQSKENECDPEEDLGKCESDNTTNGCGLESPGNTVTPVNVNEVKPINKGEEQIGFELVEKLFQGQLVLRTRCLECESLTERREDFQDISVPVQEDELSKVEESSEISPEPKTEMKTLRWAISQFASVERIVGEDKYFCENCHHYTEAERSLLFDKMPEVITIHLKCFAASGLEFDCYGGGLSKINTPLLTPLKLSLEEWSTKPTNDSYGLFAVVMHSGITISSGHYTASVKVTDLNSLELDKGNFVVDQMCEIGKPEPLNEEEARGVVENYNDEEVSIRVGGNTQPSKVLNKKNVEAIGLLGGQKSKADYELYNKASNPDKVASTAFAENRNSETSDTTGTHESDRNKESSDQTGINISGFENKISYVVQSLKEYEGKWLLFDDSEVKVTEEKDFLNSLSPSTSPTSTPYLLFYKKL
T1 sequence (Q8TAF3 whole entry partner): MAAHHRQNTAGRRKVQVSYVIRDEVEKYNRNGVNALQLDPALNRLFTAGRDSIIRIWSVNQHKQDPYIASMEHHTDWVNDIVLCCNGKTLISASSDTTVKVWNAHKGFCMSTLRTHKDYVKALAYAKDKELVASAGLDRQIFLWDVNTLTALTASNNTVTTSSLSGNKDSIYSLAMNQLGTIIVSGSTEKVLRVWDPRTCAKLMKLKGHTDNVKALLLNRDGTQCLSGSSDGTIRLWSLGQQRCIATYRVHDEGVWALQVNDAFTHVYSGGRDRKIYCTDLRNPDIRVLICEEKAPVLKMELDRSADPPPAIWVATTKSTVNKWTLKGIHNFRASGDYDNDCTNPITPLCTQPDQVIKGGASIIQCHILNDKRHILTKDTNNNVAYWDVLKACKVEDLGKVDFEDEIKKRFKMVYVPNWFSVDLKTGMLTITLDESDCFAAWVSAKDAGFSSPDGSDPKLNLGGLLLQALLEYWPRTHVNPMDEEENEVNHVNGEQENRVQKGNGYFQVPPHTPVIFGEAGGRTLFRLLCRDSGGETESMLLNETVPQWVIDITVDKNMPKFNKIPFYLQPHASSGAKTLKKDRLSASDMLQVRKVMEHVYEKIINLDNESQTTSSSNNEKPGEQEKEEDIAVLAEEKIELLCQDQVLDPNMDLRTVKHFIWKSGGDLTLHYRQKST

SMILES: O=C1c2ccccc2C(=O)c2oc(-c3ccc(F)cc3)nc21 [Formula IV (527)]
- FANCD2-Ub levels [1]: dose-dependent increase
- FANCI-Ub levels [1]: dose-dependent increase
- USP1 binding to Ub-VS [2]: did inhibit USP1 binding to Ub-VS in the same reaction in a dose-dependent manner
- IC50 compared with USP1/UAF1 ([3]; FIG. 6D): slightly higher
- DUB activity of the USP5 enzyme ([3]; in vitro, FIG. 6B): inhibited
